Data reported in PubChem BioAssay (NCI).
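Where inhibition never reached the appropriate level, the endpoint shown equals the highest concentration tested. Otherwise, values were interpolated linearly from a five-concentration, 48-hour dose response in 96-well plates. GI50: concentration for 50% inhibition of growth. TGI marks complete inhibition of growth.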

What was measured:
Assay in all cases: NCI anticancer screen, dose series, 48 h
CAKI-1 renal = system: CAKI-1 renal
HT29 colon = system: HT29 colon
NCI-H226 lung = system: NCI-H226 lung
NCI-H23 lung = system: NCI-H23 lung
OVCAR-8 ovarian = system: OVCAR-8 ovarian
RXF 393 renal = system: RXF 393 renal
SNB-19 CNS = system: SNB-19 CNS
U251 CNS = system: U251 CNS
LOX IMVI melanoma = system: LOX IMVI melanoma
DU-145 prostate = system: DU-145 prostate

SMILES | TGI (CAKI-1 renal) | TGI (HT29 colon) | TGI (NCI-H226 lung) | TGI (NCI-H23 lung) | TGI (OVCAR-8 ovarian) | TGI (RXF 393 renal) | TGI (SNB-19 CNS) | TGI (U251 CNS) | TGI (LOX IMVI melanoma) | GI50 (HT29 colon) | GI50 (LOX IMVI melanoma) | GI50 (NCI-H226 lung) | GI50 (NCI-H23 lung) | GI50 (OVCAR-8 ovarian) | GI50 (RXF 393 renal) | GI50 (SNB-19 CNS) | GI50 (U251 CNS) | GI50 (CAKI-1 renal) | GI50 (DU-145 prostate) | TGI (DU-145 prostate)
CCOC(=O)c1ccc(N2C(=O)/C(=C\OC)c3ccccc3C2=O)cc1 | > 100 µM | > 100 µM | > 100 µM | > 100 µM | > 100 µM | 61.3 µM | > 100 µM | > 100 µM |  |  |  |  |  |  |  |  |  |  |  | 
CC(C)(C)[C@H]1CO[C@]2(C)[C@@H]3C[C@@H]3C(=O)N12 | > 100 µM | > 100 µM | > 100 µM | > 100 µM | > 100 µM | > 100 µM | > 100 µM | > 100 µM | > 100 µM |  |  |  |  |  |  |  |  |  |  | 
N.N.NC(CS)C(=O)[O-].NC(CS)C(=O)[O-].[Pt+4] (configuration not stated) |  | > 50 µM | > 50 µM | > 50 µM | > 50 µM | > 50 µM | > 50 µM | > 50 µM | > 50 µM | > 50 µM | > 50 µM | > 50 µM | > 50 µM | > 50 µM | > 50 µM | > 50 µM | > 50 µM |  |  | 
ON=C1CCC(c2ccccc2)CC1 (configuration not stated) | > 100 µM | > 100 µM | > 100 µM | > 100 µM | > 100 µM | > 100 µM | > 100 µM | > 100 µM | > 100 µM |  |  |  |  |  |  |  |  |  |  | 
COc1ccc(/C=C\c2cc(OC)c(OC)c(OC)c2)cc1OCC(=O)Nc1nc2ccc(C(F)(F)F)cc2s1 | > 100 µM | > 100 µM | 31.3 µM | > 100 µM | > 100 µM |  | > 100 µM | > 100 µM | > 100 µM | 14.9 µM | 4.01 µM | 3.17 µM | 3.9 µM | 3.86 µM |  | 5.03 µM | 3.67 µM | 3.1 µM | 2.51 µM | 6.56 µM
c1ccc(N=C2c3ccccc3C3=NCCCN32)cc1 | > 100 µM | > 100 µM | > 100 µM | > 100 µM | > 100 µM | > 100 µM | > 100 µM | > 100 µM | > 100 µM |  |  |  |  |  |  |  |  |  |  | 
Cc1cc(C)nc(Nc2nc3ccc([N+](=O)[O-])cc3[nH]2)n1 | > 100 µM | > 100 µM | > 100 µM | > 100 µM | > 100 µM |  | > 100 µM | > 100 µM | > 100 µM |  |  |  |  |  |  |  |  |  |  | 
COC(=O)Nc1nc2ccccc2c(=O)[nH]1 | > 100 µM | > 100 µM | > 100 µM | > 100 µM | > 100 µM | > 100 µM | > 100 µM | > 100 µM |  |  |  |  |  |  |  |  |  |  |  | > 100 µM
C[C@]12CC[C@@H]3c4ccc(O)cc4CC[C@H]3[C@@H]1CC[C@@H]2NS(=O)(=O)Cc1ccc(Cl)cc1 | 11.2 µM | 10.8 µM | 12.6 µM | 10.8 µM | 7.58 µM | 6.06 µM | 47.1 µM | 11.8 µM |  | 3.34 µM |  | 3.19 µM | 2.76 µM | 2.52 µM | 2.04 µM | 3.66 µM | 3.33 µM | 3.06 µM | 3.99 µM | 16.8 µM
CC(=O)/C=C/c1ccc(C2CC(C)=Nc3c(ccc4c3C(=O)c3ccccc3C4=O)N2)cc1 (configuration not stated) | > 83.5 µM | > 100 µM | > 100 µM | > 100 µM | > 100 µM | > 100 µM | > 100 µM | > 100 µM | > 100 µM |  |  |  |  |  |  |  |  |  |  | 
O=C(O)C12C3CCCC1C2CC3 (configuration not stated) | > 100 µM | > 100 µM | > 100 µM | > 100 µM | > 100 µM | > 100 µM | > 100 µM | > 100 µM | > 100 µM |  |  |  |  |  |  |  |  |  |  | 
Nc1c(-c2nc3ccccc3[nH]2)sc(=S)n1-c1ccccc1 | > 100 µM | > 100 µM | > 100 µM | > 100 µM | > 100 µM | > 100 µM | > 100 µM | > 100 µM |  |  |  |  |  |  |  |  |  |  |  | 
O=C(c1ccccc1)c1c(C(=O)c2ccccc2)c(-c2ccccc2)c2c(-c3ccccc3)sc(-c3ccccc3)c2c1-c1ccccc1 | > 100 µM | > 100 µM | > 100 µM | > 100 µM | > 100 µM | > 100 µM | > 100 µM | > 100 µM | > 100 µM |  |  |  |  |  |  |  |  |  |  | 
O=C(O)c1cc2c(cn1)[nH]c1ccccc12 | > 100 µM | > 100 µM | > 100 µM | > 100 µM | > 100 µM | > 100 µM | > 100 µM | > 100 µM | > 100 µM |  |  |  |  |  |  |  |  |  |  | 
CC(C(=O)Oc1ccc2ccccc2c1-c1c(O)ccc2ccccc12)c1ccccc1 (configuration not stated) | 24 µM | 28.8 µM | 26.5 µM | 30.3 µM | 50.2 µM | 22.9 µM | 28.4 µM | 28.7 µM |  |  |  |  |  |  |  |  |  |  |  | 
COC(=O)c1c(CC#N)cccc1CC#N | > 100 µM | > 100 µM | > 100 µM | > 100 µM | > 100 µM | > 100 µM | > 100 µM | > 100 µM | > 100 µM |  |  |  |  |  |  |  |  |  |  | 
CC(c1cccc2ccccc12)/[N+]([O-])=C/c1ccccc1 (configuration not stated) |  | > 100 µM |  | > 100 µM | > 100 µM | > 100 µM | > 100 µM | > 100 µM | > 100 µM |  |  |  |  |  |  |  |  |  |  | 
COc1ccc(-c2nc(-c3ccccc3)c(-c3ccccc3)n2C2CC2)cc1OC1CCCC1 | > 165 µM | > 165 µM | > 165 µM | > 165 µM | > 165 µM |  | > 165 µM | > 165 µM | > 165 µM | 85.1 µM | 15.1 µM | 83.7 µM | > 165 µM | 66.6 µM |  | > 165 µM | 30.2 µM | 50.2 µM | 94.5 µM | > 165 µM
C=C1CC[C@@H]2C(C)(C)CCC[C@@]2(C)[C@@H]1Cc1cc(O)ccc1O | 22.2 µM | 32.6 µM | 7.09 µM | 18.7 µM | 15.1 µM | 5.18 µM | 21.9 µM | 14.5 µM | 5.35 µM |  |  |  |  |  |  |  |  |  |  | 
O=C1C(=O)N(c2ccc(Cl)c(Cl)c2)C(=O)C(=O)C1c1nc2ccccc2o1 | > 100 µM | > 100 µM | > 100 µM | > 100 µM | > 100 µM |  | > 100 µM | 85.6 µM | > 100 µM |  |  |  |  |  |  |  |  |  |  | 
